Test results reported in patent publication EP4772523A1, “D-PEPTIDE AND USE THEREOF” (HIROSAKI UNIVERSITY, priority 2023, dated 2025).
Like-named read-outs stand apart in the source and are kept apart here. *1 amine or outer side, *2 acyl side, *3 side chain or, on linkers, in order; H or OH if unused. Where a SMILES comes first, the peptide text is derived from it. Where no end group is shown, it is not given here. [ ]: non-standard residue; d: D form. The star is where a group is joined. Dolaproine = CO[C@@H]([C@@H]1CCCN1)[C@@H](C)C(=O)O; Hexanoyl(6-maleimido) = O=C1C=CC(=O)N1CCCCCC(=O)*; Dil = CC[C@H](C)[C@H](NC)[C@@H](CC(=O)O)OC; PABC = O=C(OCc1ccc(N[*:1])cc1)[*:2]; X1 = C[C@@H](N*)[C@@H](O)c1ccccc1; Cit = NC(=O)NCCC[C@H](N)C(=O)O; NMeV = CN[C@H](C(=O)O)C(C)C

Experiments:
MBT2 and PC3-PSMA+ cells = test: Uptake of ^10BSH in cancer cells by immunofluorescent staining with anti-^10BSH antibody; type: cell-based; conditions: 50 µg added, 24 hours; compared with ^10BSH
Description: Uptake of ^10BSH-dhp7 in cancer cells was examined. 50 µg of ^10BSH-dhp7 or ^10BSH was added to MBT2 and PC3-PSMA+ cells seeded in a 3.5 cm culture dish (ib81156) manufactured by ibidi. 24 hours later, the cells were washed with PBS three times and then fixed with 4% PFA. After blocking with 3% BSA BD PhosFlow perm/wash buffer I (BD557885), 3% BSA BD PhosFlow perm/wash buffer I containing 1 µg/ml of the rabbit anti-^10BSH polyclonal antibody #52 was reacted at room temperature for one hour with ^10BSH taken up into the cells. After washing with PBS three times, it was reacted at room temperature for one hour with an APC-labeled anti-mouse IgG antibody (diluted 1000-fold) to detect the rabbit anti-^10BSH polyclonal antibody, and washed with PBS three times. Then, intracellular uptake of ^10BSH-dhp7 or ^10BSH in each cancer cell was examined by a fluorescence microscope (Keyence BZ9000) (FIG. 16).

[1] = test system: mouse bladder cancer cells MBT2; test: Boron neutron capture therapy (BNCT) in mouse bladder cancer model; type: in vivo, C3H/HeN mice
Description: Since it was found in Example 6 that ^10BSH-dhp7 is taken up into Anxa1-positive cancer cells, boron neutron capture therapy by ^10BSH-dhp7 was attempted in a mouse bladder cancer model.
Starting from 48 hours after the administration, the tumor area was irradiated with thermal neutrons at 20 MeV 100 mA for 60 minutes using an accelerator manufactured by Sumitomo Heavy Industries (dose: 1.63 × 10^12/cm^2, average 0.23 Gy). One week after the irradiation, second BNCT treatment was performed. 24 hours prior to irradiation with thermal neutrons, 20 mg/kg (0.4 mg/20 g mouse) of ^10BSH-dhp7 was intraperitoneally administered. Irradiation with thermal neutrons was then performed. One week after the second irradiation, mice of each group were sacrificed. The tumor size and the tumor weight were measured, and pathological analysis of the resected tissue was performed to verify the antitumor effect. The tumor volume was measured from the start of administration until sacrifice by the calculation formula: V = long axis × short axis × short axis/2) (FIG. 17).

[2] = test system: PC3-Luc2-PSMA+/ANXA1-positive cells; test: Cytotoxicity (Cell Counting Kit-8) to ANXA1-positive PC3 cells; type: cell-based, human
Description: (§1) The cell viability was analyzed by Cell Counting Kit-8 (Dojindo), and the IC50 value was calculated (FIG. 40).

[3] = test system: PSMA-negative/ANXA1-negative human prostate cancer cells PC3 and PSMA-positive/ANXA1-positive PC3 cells; test: Anticancer treatment in back subcutaneous PC3 tumor model; type: in vivo, nude mice
Description: 1 × 10^6 PSMA-negative/ANXA1-negative human prostate cancer cells PC3 were inoculated into the left back of nude mice, and 1 × 10^6 PSMA-positive/ANXA1-positive PC3 cells were inoculated into the right back of the nude mice. […] As control, 0.919 mg/kg (22.975 ng vcMMAE/25 g mouse) of vcMMAE alone (molecular weight: 1316.6) was administered. The tumor size was monitored by measuring the average radiance (photon/sec/cm^2/sr) of the luciferase-expressing tumor after injection of luciferin (150 mg/mouse) using an IVIS system. After three courses of administration, the tumor size, body weight, pathological test, blood biochemical test, and blood cell count test values were evaluated (FIG. 41).

[4] = test system: PSMA-negative/ANXA1-negative human prostate cancer cells PC3 and PSMA-positive/ANXA1-positive PC3 cells; test: Anticancer treatment in femur subcutaneous PC3 tumor model; type: in vivo, nude mice; conditions: vcMMAE-dhp7 1.25 mg/kg or vcMMAE 0.919 mg/kg intraperitoneal every four days, three courses; femur tumors
Description: (§2) As control, 0.919 mg/kg (22.975 ng vcMMAE/25 g mouse) of vcMMAE alone (molecular weight: 1316.6) was administered. The tumor size was monitored by measuring the average radiance (photon/sec/cm^2/sr) of the luciferase-expressing tumor after injection of luciferin (150 mg/mouse using an IVIS system. After three courses of administration, the average radiance of the luciferase-expressing tumor and the body weight were evaluated (FIG. 46).

[5] = test system: PSMA-positive/ANXA1-positive PC3 cells; test: Anticancer treatment in femur PC3 tumor model at same vcMMAE dose; type: in vivo, mice; conditions: four courses; for average radiance of luciferase-expressing tumor: vcMMAE-dhp7 2.14 mg/kg or vcMMAE 1.25 mg/kg intraperitoneal every four days
Description: as §2, with “2 × 10^6 PSMA-positive/ANXA1-positive PC3 cells were inoculated into the right femur. […] As” for “As”, “1.25” for “0.919”, “(31.25” for “(22.975”, “four” for “three”, “48).” for “46).”

[6] = test system: PC3-Luc2-PSMA-/ANXA1-negative cells; test: Cytotoxicity (Cell Counting Kit-8) to ANXA1-negative PC3 cells; type: cell-based, human; conditions: 37°C for 24 hours; cell viability by Cell Counting Kit-8
Description: as §1

[7] = molecular target: L-MC16 (L-amino acid MC16 peptide, 15 N-terminal residues of annexin A1) (human or mouse ANXA1 ("such as human ANXA1 or mouse ANXA1")); test: BLI (Octet K2), biotinylated D-peptide on SSA biosensor, L-MC16 as analyte, 37°C, 1:1 model
[8] = test system: PC3-PSMA-/ANXA1- and PC3-PSMA+/ANXA1+; conditions: mouse, in vivo, ip, 28.7 mg/kg
Description: Further, variation in accumulation depending on the tumor size was examined. […] Tumor accumulation was examined in the same manner as above (FIG. 22).

[9] = test system: human head and neck cancer cells SAS and human osteosarcoma cancer cells MG-63; conditions: mouse, in vivo
Description: 96 hours after the administration, the mice were sacrificed, and the main organs were resected and then imaged ex vivo.

[10] = State of dissolution in physiological saline at dosing concentration; type: physicochemical; conditions: dosing solutions: ^10BSH 1.25 mg/25 g mouse, ^10BSH-vc-dhp7 8.25 mg/25 g mouse, IF7-^10BSH 10.08 mg/25 g mouse
Description: Thus, it was shown that ^10BSH-vc-dhp7 is more soluble and more flexible in designing the dosage form than IF7-^10BSH.

[11] = test system: PC3-PSMA+ and PC3-PSMA- cells; test: Uptake of ^10BSH in PC3 cells by immunofluorescent staining (Val-Cit conjugate); type: cell-based, human
Description: (§3) Uptake of ^10BSH-vc-dhp7 in cancer cells was examined. 330 µg of ^10BSH-vc-dhp7, 403.6 µg of […](EMCS-^10BSH)RR (IF7-^10BSH (a compound described in WO2019244954)) (SEQ ID NO: 40 ([…])), or 50 µg of ^10BSH was added to PC3-PSMA+ and PC3-PSMA- cells seeded in a 3.5 cm culture dish (ib81156) manufactured by ibidi. 24 hours later, the cells were washed with PBS three times and then fixed with 4% PFA. Each peptide-boron compound was prepared to have a boron concentration that allows 50 µg of ^10BSH to be finally added. After blocking with 3% BSA BD PhosFlow perm/wash buffer I (BD557885), 3% BSA BD PhosFlow perm/wash buffer I containing 1 µg/ml of the rabbit anti-^10BSH polyclonal antibody #52 was reacted at room temperature for one hour with ^10BSH taken up into the cells. After washing with PBS three times, it was reacted at room temperature for one hour with an APC-labeled anti-mouse IgG antibody (diluted 1000-fold) to detect the rabbit anti-^10BSH polyclonal antibody, and washed with PBS three times. Then, intracellular uptake of […], IF7-^10BSH, or ^10BSH in each cancer cell was examined by a fluorescence microscope (Keyence BZ9000) (FIGS. 27 and 28).

[12] = test system: PC3, SAS, and MG-63 cells; test: Uptake of ^10BSH in PC3, SAS and MG-63 cells by immunofluorescent staining; type: cell-based, human; conditions: compared with non-addition group
Description: as §3

[13] = test system: human prostate cancer cells PC3-PSMA-/ANXA1-; test: BNCT in ANXA1-negative prostate cancer model; type: in vivo, nude mice; conditions: ^10BSH 50 mg/kg or conjugate 330 mg/kg intraperitoneal, two irradiations
Description: (§4) Since it was found in Example 10 that the boron concentration in the tumor tissue by administration of ^10BSH-vc-dhp7 is sufficient for the antitumor effect of neutron capture therapy (BNCT), boron neutron capture therapy by EMCS-^10BSH-vc-dhp7 was attempted in ANXA1-negative human prostate cancer and ANXA 1-positive head and neck cancer models. […] Starting from 24 hours after the administration, the tumor area was irradiated with thermal neutrons at 20 MeV 100 mA for 60 minutes using an accelerator manufactured by Sumitomo Heavy Industries (dose: 1.63 × 10^12/cm^2, average 0.23 Gy). One week after the irradiation, second BNCT treatment was performed.
(§5) Irradiation with thermal neutrons was then performed. One week after the second irradiation, mice of each group were sacrificed. The tumor size and the tumor weight were measured, and pathological analysis of the resected tissue was performed to verify the antitumor effect. The tumor volume was measured from the start of administration until sacrifice by the calculation formula: V = long axis × short axis × short axis/2) (FIGS. 38 and 39).

[14] = test system: human head and neck cancer cells SAS; test: BNCT in ANXA1-positive head and neck cancer model; type: in vivo, nude mice
Description: as §4, §5

EMCS-^10BSH-hpnevrs (HPNEVRS; not fully specified (some residues, N-terminus); printed as EMCS-^10BSH-hpnevrs) [^10BSH-dhp7]
intracellular uptake of ^10BSH (fluorescence) (MBT2 and PC3-PSMA+ cells): dotted intracellular fluorescence was observed
tumor reduction effect, non-BNCT treatment group ([1]; 20 mg/kg intraperitoneal, no irradiation): no tumor reduction effect was observed
tumor reduction effect, BNCT treatment group ([1]; 20 mg/kg intraperitoneal, two thermal neutron irradiations, one week after the second irradiation): tumors almost completely disappeared
residual tumors in pathological analysis of resected tissues ([1]; administration and BNCT treatment group): no residual tumors in four of eight cases

c(vcMMAE)-hpnevrs [vcMMAE-dhp7]
IC50 value ([2]; 37°C for 24 hours, cell viability by Cell Counting Kit-8): 122.7 ng
in-vitro sensitivity of Anxa1-positive cells relative to ANXA1-negative cells ([2]; PC3 cells): twice
average radiance of luciferase-expressing tumor ([3]; 1.25 mg/kg intraperitoneal every four days, three courses, back subcutaneous tumors): almost completely reduced
appearance and HE staining of resected tumors ([3]; in contrast to vcMMAE alone administration group): marked necrotic change and fewer residual tumors were observed
CD31-positive vessel density in the residual tumors ([3]; versus vcMMAE treatment group): statistically significantly reduced
average radiance of luciferase-expressing tumor [4]: reduced similarly over the three courses of treatment
resected tumor weights compared with vcMMAE treatment group [5]: markedly smaller
average radiance of luciferase-expressing tumor [5]: markedly reduced
IC50 value [6]: 204.5 ng

biotin-dqy7 (D-amino acid peptide qyatnlk modified with biotin at the N-terminus)
Kd [7]: 990 nM

c(MI-Cy7.5)-vc-hpnevrs [Cy7.5-vc-dhp7]
start of selective accumulation in the tumor tissue [8]: 60 min
tumor accumulation maintained until [8]: 96 h
start of selective accumulation in the tumor tissue [9]: 60 min
time of maximum tumor accumulation [9]: 2 to 24 h
tumor accumulation maintained until [9]: 96 h

biotin-dhp7 (D-amino acid peptide hpnevrs modified with biotin at the N-terminus)
Kd [7]: 480 nM

IFLLWQRK(EMCS-^10BSH)RR (EMCS-10BSH boron cluster; C-terminal RR) [IF7-^10BSH, reference compound]
state in physiological saline [10]: poorly soluble and cloudy

biotin-dst7 (D-amino acid peptide stsrntl modified with biotin at the N-terminus)
Kd [7]: 720 nM

CC[C@H](C)[C@@H]([C@@H](CC(=O)N1CCC[C@H]1[C@H](OC)[C@@H](C)C(=O)N[C@H](C)[C@@H](O)c1ccccc1)OC)N(C)C(=O)[C@@H](NC(=O)[C@H](C(C)C)N(C)C(=O)OCc1ccc(NC(=O)[C@H](CCCNC(N)=O)NC(=O)[C@@H](NC(=O)CCCCCN2C(=O)C=CC2=O)C(C)C)cc1)C(C)C [vcMMAE] ({Hexanoyl(6-maleimido)}-V[Cit][PABC][NMeV]V[Dil][Dolaproine]-X1)
in-vitro sensitivity of Anxa1-positive cells relative to ANXA1-negative cells [2]: twice
white blood cell count ([3]; 0.919 mg/kg, post-treatment): reduced
average radiance of luciferase-expressing tumor [4]: tended to increase
average radiance of luciferase-expressing tumor [5]: tended to increase

EMCS-^10BSH-val-cit-hpnevrs ([dH][dP][dN][dE][dV][dR][dS]; not fully specified (N-terminus); printed as EMCS-^10BSH-val-cit-hpnevrs) [^10BSH-vc-dhp7]
efficiency of intracellular intake of ^10BSH ([11]; ANXA1-positive PC3 cells, versus IF7-^10BSH and ^10BSH treatment groups): statistically significantly higher
uptake in PSMA-negative cells compared with PSMA-positive cells ([11]; PSMA-negative cells expressing less ANXA1 on the cell surface): took up ^10BSH-vc-dhp7 less than the PSMA-positive cells did
intracellular uptake of ^10BSH (fluorescence) ([11]; amount equal to 50 µg of ^10BSH, 24 hours, compared with ^10BSH): more dotted intracellular fluorescence was observed
intracellular intake of ^10BSH [12]: statistically significant intracellular intake of ^10BSH in all cells
state in physiological saline [10]: in a dissolved state
tumor reduction effect, BNCT treatment group [13]: no tumor reduction effect was observed
tumor growth suppressing effect, BNCT treatment group ([14]; ANXA1-positive head and neck cancer model, 330 mg/kg intraperitoneal, starting immediately after the first BNCT): tumor growth suppressing effect more remarkable than that in the ^10BSH and BNCT treatment group
tumor volume compared with ^10BSH and BNCT treatment group ([14]; one week after the second irradiation): reduced tumor volume
